Test results taken from ChEMBL document CHEMBL1159265, “Bis(sulfato)-cyclosiphonodictyol A, a new disulfated sesquiterpene-hydroquinone from a deep water collection of the Marine sponge Siphonodictyon coralliphagum” (J Nat Prod, 1995).

Target: Leukotriene B4 receptor 1 (Homo sapiens, UniProt Q15722)
Test: Displacement of [3H]LTB4 from LTB4 receptor in human neutrophils

Leukotriene B4 receptor 1, sequence (Q15722 whole entry): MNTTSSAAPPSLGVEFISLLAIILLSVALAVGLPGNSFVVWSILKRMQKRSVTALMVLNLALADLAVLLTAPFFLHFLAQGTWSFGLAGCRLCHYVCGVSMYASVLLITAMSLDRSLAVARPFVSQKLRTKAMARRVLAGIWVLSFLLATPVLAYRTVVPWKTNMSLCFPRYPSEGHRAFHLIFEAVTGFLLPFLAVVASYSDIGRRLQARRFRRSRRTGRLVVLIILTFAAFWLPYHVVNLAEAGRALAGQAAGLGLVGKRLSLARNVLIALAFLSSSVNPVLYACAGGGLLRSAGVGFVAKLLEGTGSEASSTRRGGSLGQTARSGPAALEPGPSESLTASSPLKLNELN

Work on `CC1(C)CCC[C@]2(C)[C@H]3Cc4c(OS(=O)(=O)O)ccc(OS(=O)(=O)O)c4CO[C@]3(C)CC[C@@H]12` yielded an IC50 of 44.5 µM.
